Experimental data as given in US20080004266A1, “Method for treating proliferative disorders associated with protooncogene products” (priority 2006, published 2008).

Key:
[1] = tested on: NPM-ALK; assay: Degradation of NPM-ALK in Karpas-299 cells (Western blot); type: cell-based, human; conditions: 18 hours
Procedure: Anaplastic large-cell lymphoma cells, Karpas-299 cells (the German resource center for biological material) (2×10^6 cells), which harbor the fusion protein NPM-ALK, were treated (0.05 μM, 0.1 μM and 0.5 μM) with either Compound 226 or 17-AAG. After 18 hours and the cells were lysed with 1× lysis buffer and a western blot was perform using an anti-ALK antibody to detect and phosphorylated NPM-ALK and total NPM-ALK.

[2] = tested on: human tumor cell line Kasumi-1; assay: Kasumi-1 (c-Kit N822K) SCID mouse xenograft model; type: in vivo, human (xenograft in SCID mouse); conditions: for % T/C value: SCID mice
Excerpt: The human acute myelogenous leukemia cell line, Kasumi-1 (ATCC #CRL-2724), was obtained from the American Type Culture Collection (ATCC; Manassas, Va., USA). Growth of this tumor cell line is dependent upon the expression of an activated form of the c-Kit tyrosine kinase receptor carrying a N822K mutation (A. Beghini, et al., Exp. Hematol. 33:682-688, 2005). […] FBS was obtained from ATCC and all other reagents were obtained from Invitrogen Corp. (Carlsbad, Calif., USA). Cells that had been cryopreserved in liquid nitrogen were rapidly thawed at 37° C. and transferred to a tissue culture flask containing growth media and then incubated at 37° C. in a 5% CO2 incubator. To expand the cell line, cultures were passaged 1:2 to a density of 5×10 (6) cells/ml every three days by adding an equal volume of fresh growth media. When the flasks reached a density of approximately 10×10 (6) cells/ml, the above passaging process was repeated until sufficient cells had been obtained for implantation into mice.
Seven to eight week old, female CB17/Icr-Prkdc^scid/Crl (SCID) mice were obtained from Charles River Laboratories (Wilmington, Mass., USA). […]
Tumors were then permitted to develop in vivo until the majority reached 100-200 mm^3 in tumor volume, which typically required 4-5 weeks following implantation. […] Tumor volumes (V) were calculated by caliper measurement of the width (W), length (L) and thickness (T) of tumors using the following formula: V=0.5236×(L×W×T). Animals were randomized into treatment groups so that the median tumor volumes of each group were similar at the start of dosing. % T/C values, as a measure of efficacy, were determined as follows: • (vi) If ΔT>0: % T/C=(ΔT/ΔC)×100 • (vii) If ΔT<0: % T/C=(ΔT/T0)×100 • (viii) ΔT=Change in median tumor volume between start of dosing and the end of study. • (ix) ΔC=Change in median tumor volume between start of dosing and the end of study. • (x) T0=Median tumor volume at start of dosing. […]

## CC(C)c1cc(-c2nnc(O)n2-c2ccc3c(ccn3C)c2)c(O)cc1O [Compound 226, 3-(2,4-di-hydroxy-5-isopropyl-phenyl)-4-(1-methyl-indol-5-yl)-5-hydroxy-[1,2,4] triazole]
[1]; 0.05 μM and 0.1 μM
  degradation of phosphorylated and total NPM-ALK: partial degradation
[1]; 0.5 μM
  degradation of phosphorylated NPM-ALK: total degradation
[2]; 25 mg/kg i.v. 5 times per week, day 50
  average bodyweight gain relative to the start of the study: +0.7% (+/−2.0 SEM)
[2]; 25 mg/kg i.v. 5 times per week, 14 doses, day 50
  % T/C value: −15.3%
[2]; single dose of 25 mg/kg on day 30, observed day 33 (3 days after the first dose)
  % T/C value: −4.1%
